Consider one compound from US20240082244A1, “PHARMACEUTICAL FORMULATION” (Redx Pharma PLC, priority 2021, published 2024).

The data set can be described thus: Experimental stability/excipient compatibility study of prototype formulation. It counts as physicochemical. Conditions: with Vitamin E polyethylene glycol succinate and gelatin capsule shell; 25° C./60% RH and 40° C./75% RH over a 1-month period. An excerpt:
A homogeneous solution of Compound I is formed with the Vitamin E polyethylene glycol succinate (TPGS), which enables good uniformity of content to be achieved at low strengths.

Each structure is given as a SMILES string.

With `Cc1c(-c2ccnc(C(F)(F)F)c2)ncn1CC(=O)Nc1ccc(-c2cnccn2)cn1` [Compound I], the “Degradation of Compound I in prototype formulation” value is “No significant degradation”.
